From paper PMC8330742, “New benzothieno[2,3-c]pyridines as non-steroidal CYP17 inhibitors: design, synthesis, anticancer screening, apoptosis induction, and in silico ADME profile studies” (Journal of Enzyme Inhibition and Medicinal Chemistry, 2021)

How the values were obtained:
CCRF-CEM = test: NCI-60 SRB screen; type: cell-based; conditions: Homo sapiens, single dose 10^−5 M, read-out: Growth inhibition (%)
ACHN = test: NCI-60 SRB screen; type: cell-based; conditions: Homo sapiens, single dose 10^−5 M, read-out: Growth inhibition (%)
COLO 205 = test: NCI-60 SRB screen; type: cell-based, human; conditions: Homo sapiens; COLO 205; single dose 10^−5 M; read-out: Growth inhibition (%)
MDA-MB-435 = test: NCI-60 SRB screen; type: cell-based; conditions: Homo sapiens, MDA-MB-435, read-out: Growth inhibition (%)
SK-MEL-28 = test: NCI-60 SRB screen; type: cell-based; conditions: Homo sapiens; SK-MEL-28; single dose 10^−5 M; read-out: Growth inhibition (%)
[1] = test system: panel of 60 cancer cell lines; test: NCI-60 SRB screen, mean or range over the panel; type: cell-based, human; conditions: Homo sapiens; mean over the cell lines; single dose 10^−5 M; read-out: Mean growth inhibition (%)
HT-29 = test: NCI-60 SRB screen; type: cell-based; conditions: Homo sapiens; HT-29; single dose 10^−5 M; read-out: Growth inhibition (%)
CAKI-1 = test: NCI-60 SRB screen; type: cell-based, human; conditions: Homo sapiens; CAKI-1; single dose 10^−5 M; read-out: Growth inhibition (%)
NCI-H322M = test: NCI-60 SRB screen; type: cell-based, human; conditions: Homo sapiens, single dose 10^−5 M, read-out: Growth inhibition (%)
786-0 = test: NCI-60 SRB screen; type: cell-based; conditions: Homo sapiens; 786-0; single dose 10^−5 M; read-out: Growth inhibition (%)
HOP-62 = test: NCI-60 SRB screen; type: cell-based, human; conditions: Homo sapiens; HOP-62; single dose 10^−5 M; read-out: Growth inhibition (%)
K-562 = test: NCI-60 SRB screen; type: cell-based, human; conditions: Homo sapiens, K562; K-562; single dose 10^−5 M; read-out: Growth inhibition (%)
NCI-H460 = test: NCI-60 SRB screen; type: cell-based, human; conditions: Homo sapiens; NCI-H460; single dose 10^−5 M; read-out: Growth inhibition (%)
SW-620 = test: NCI-60 SRB screen; type: cell-based; conditions: Homo sapiens; SW-620; single dose 10^−5 M; read-out: Growth inhibition (%)
UO-31 = test: NCI-60 SRB screen; type: cell-based, human; conditions: Homo sapiens; UO-31; single dose 10^−5 M; read-out: Growth inhibition (%)
SK-MEL-2 = test: NCI-60 SRB screen; type: cell-based, human; conditions: Homo sapiens; SK-MEL-2; single dose 10^−5 M; read-out: Growth inhibition (%)
EKVX = test: NCI-60 SRB screen; type: cell-based, human; conditions: Homo sapiens, single dose 10^−5 M, read-out: Growth inhibition (%)
HCT-116 = test: NCI-60 SRB screen; type: cell-based, human; conditions: Homo sapiens; HCT-116; single dose 10^−5 M; read-out: Growth inhibition (%)
RXF 393 = test: NCI-60 SRB screen; type: cell-based, human; conditions: Homo sapiens; RXF 393; single dose 10^−5 M; read-out: Growth inhibition (%)
SF-268 = test: NCI-60 SRB screen; type: cell-based, human; conditions: Homo sapiens; SF-268; single dose 10^−5 M; read-out: Growth inhibition (%)
OVCAR-8 = test: NCI-60 SRB screen; type: cell-based, human; conditions: Homo sapiens; OVCAR-8; single dose 10^−5 M; read-out: Growth inhibition (%)
HCC-2998 = test: NCI-60 SRB screen; type: cell-based, human; conditions: Homo sapiens; HCC-2998; single dose 10^−5 M; read-out: Growth inhibition (%)
MALME-3M = test: NCI-60 SRB screen; type: cell-based, human; conditions: Homo sapiens, single dose 10^−5 M, read-out: Growth inhibition (%)
KM12 = test: NCI-60 SRB screen; type: cell-based, human; conditions: Homo sapiens; KM12; single dose 10^−5 M; read-out: Growth inhibition (%)
IGROV1 = test: NCI-60 SRB screen; type: cell-based, human; conditions: Homo sapiens, IGROV-1; IGROV1; single dose 10^−5 M; read-out: Growth inhibition (%)
OVCAR-4 = test: NCI-60 SRB screen; type: cell-based, human; conditions: Homo sapiens; OVCAR-4; single dose 10^−5 M; read-out: Growth inhibition (%)
M14 = test: NCI-60 SRB screen; type: cell-based, human; conditions: Homo sapiens; M14; single dose 10^−5 M; read-out: Growth inhibition (%)
UACC-62 = test: NCI-60 SRB screen; type: cell-based, human; conditions: Homo sapiens; UACC-62; single dose 10^−5 M; read-out: Growth inhibition (%)
NCI/ADR-RES = test: NCI-60 SRB screen; type: cell-based, human; conditions: Homo sapiens, single dose 10^−5 M, read-out: Growth inhibition (%)
NCI-H23 = test: NCI-60 SRB screen; type: cell-based, human; conditions: Homo sapiens; NCI-H23; single dose 10^−5 M; read-out: Growth inhibition (%)
MOLT-4 = test: NCI-60 SRB screen; type: cell-based; conditions: Homo sapiens; MOLT-4; single dose 10^−5 M; read-out: Growth inhibition (%)
SN12C = test: NCI-60 SRB screen; type: cell-based, human; conditions: Homo sapiens, SN12C; SN 12 C; single dose 10^−5 M; read-out: Growth inhibition (%)
SF-295 = test: NCI-60 SRB screen; type: cell-based, human; conditions: Homo sapiens; SF-295; single dose 10^−5 M; read-out: Growth inhibition (%)
NCI-H226 = test: NCI-60 SRB screen; type: cell-based, human; conditions: Homo sapiens; NCI-H226; single dose 10^−5 M; read-out: Growth inhibition (%)
UACC-257 = test: NCI-60 SRB screen; type: cell-based, human; conditions: Homo sapiens, UACC-257; UACC-275 (so in the source); single dose 10^−5 M; read-out: Growth inhibition (%)
A549/ATCC = test: NCI-60 SRB screen; type: cell-based, human; conditions: Homo sapiens, single dose 10^−5 M, read-out: Growth inhibition (%)
OVCAR-3 = test: NCI-60 SRB screen; type: cell-based, human; conditions: Homo sapiens; OVCAR-3; single dose 10^−5 M; read-out: Growth inhibition (%)
LOX IMVI = test: NCI-60 SRB screen; type: cell-based, human; conditions: Homo sapiens, single dose 10^−5 M, read-out: Growth inhibition (%)
HL-60(TB) = test: NCI-60 SRB screen; type: cell-based, human; conditions: Homo sapiens; HL-60 (TB); single dose 10^−5 M; read-out: Growth inhibition (%)
HCT-15 = test: NCI-60 SRB screen; type: cell-based, human; conditions: Homo sapiens; HCT-15; single dose 10^−5 M; read-out: Growth inhibition (%)
HOP-92 = test: NCI-60 SRB screen; type: cell-based, human; conditions: Homo sapiens; HOP-92; single dose 10^−5 M; read-out: Growth inhibition (%)
SR = test: NCI-60 SRB screen; type: cell-based; conditions: Homo sapiens, single dose 10^−5 M, read-out: Growth inhibition (%)
TK-10 = test: NCI-60 SRB screen; type: cell-based, human; conditions: Homo sapiens; TK-10; single dose 10^−5 M; read-out: Growth inhibition (%)
NCI-H522 = test: NCI-60 SRB screen; type: cell-based, human; conditions: Homo sapiens; NCI-H522; single dose 10^−5 M; read-out: Growth inhibition (%)
SK-MEL-5 = test: NCI-60 SRB screen; type: cell-based, human; conditions: Homo sapiens; SK-MEL-5; single dose 10^−5 M; read-out: Growth inhibition (%)

COc1ccc(C=C2Sc3c(F)cccc3C2=O)c(OC)c1 [Compound 2a, 2-(2,4-Dimethoxybenzylidene)-7-fluoro[1]benzothiophen-3(2H)-one]
inhibition at 10 µM (CCRF-CEM): -5.14% | inhibition at 10 µM (ACHN): -4.06% | inhibition at 10 µM (COLO 205): -16% | inhibition at 10 µM (MDA-MB-435): -0.27% | inhibition at 10 µM (SK-MEL-28): -7.93% | inhibition at 10 µM [1]: -3.74% | inhibition at 10 µM (HT-29): -9.18% | inhibition at 10 µM (CAKI-1): 11.9% | inhibition at 10 µM (NCI-H322M): 0.25% | inhibition at 10 µM (786-0): -12.2% | inhibition at 10 µM (HOP-62): 5.99% | inhibition at 10 µM (K-562): 4.76% | inhibition at 10 µM (NCI-H460): -6.08% | inhibition at 10 µM (SW-620): -4.67% | inhibition at 10 µM (UO-31): 25% | inhibition at 10 µM (SK-MEL-2): -17.9% | inhibition at 10 µM (EKVX): -5.71% | inhibition at 10 µM (HCT-116): -3.66% | inhibition at 10 µM (RXF 393): -27.9% | inhibition at 10 µM (SF-268): 4.51% | inhibition at 10 µM (OVCAR-8): -4.32% | inhibition at 10 µM (HCC-2998): -12.8% | inhibition at 10 µM (MALME-3M): 4.19% | inhibition at 10 µM (KM12): -5.55% | inhibition at 10 µM (IGROV1): 0.46% | inhibition at 10 µM (OVCAR-4): -6.44% | inhibition at 10 µM (M14): -5.61% | inhibition at 10 µM (UACC-62): 7.33% | inhibition at 10 µM (NCI/ADR-RES): -3.61% | inhibition at 10 µM (NCI-H23): -4.04% | inhibition at 10 µM (MOLT-4): 4.1% | inhibition at 10 µM (SN12C): -0.73% | inhibition at 10 µM (SF-295): -4.69% | inhibition at 10 µM (NCI-H226): 0.31% | inhibition at 10 µM (UACC-257): -15.2% | inhibition at 10 µM (A549/ATCC): -7.82% | inhibition at 10 µM (OVCAR-3): -7.34% | inhibition at 10 µM (LOX IMVI): -0.02% | inhibition at 10 µM (HL-60(TB)): 11% | inhibition at 10 µM (HCT-15): -9.73% | inhibition at 10 µM (HOP-92): -8.14% | inhibition at 10 µM (SR): 6.3% | inhibition at 10 µM (TK-10): -34.9% | inhibition at 10 µM (NCI-H522): 6.14% | inhibition at 10 µM (SK-MEL-5): -2.91%
